Reference: US8338465B2, “Cyclic carboxylic acid rhodanine derivatives for the treatment and prevention of tuberculosis” (priority 2006, dated 2012)

The compounds below were run against T1, dihydrolipoamide acyltransferase (DlaT) (Mycobacterium tuberculosis, UniProt P9WIS7) (assay: DlaT inhibition (Dlat IC50); DTNB peroxidase assay with Lpd, DlaT and AhpD). Conditions: Dlat IC50 category.
T1 sequence (P9WIS7 1-553): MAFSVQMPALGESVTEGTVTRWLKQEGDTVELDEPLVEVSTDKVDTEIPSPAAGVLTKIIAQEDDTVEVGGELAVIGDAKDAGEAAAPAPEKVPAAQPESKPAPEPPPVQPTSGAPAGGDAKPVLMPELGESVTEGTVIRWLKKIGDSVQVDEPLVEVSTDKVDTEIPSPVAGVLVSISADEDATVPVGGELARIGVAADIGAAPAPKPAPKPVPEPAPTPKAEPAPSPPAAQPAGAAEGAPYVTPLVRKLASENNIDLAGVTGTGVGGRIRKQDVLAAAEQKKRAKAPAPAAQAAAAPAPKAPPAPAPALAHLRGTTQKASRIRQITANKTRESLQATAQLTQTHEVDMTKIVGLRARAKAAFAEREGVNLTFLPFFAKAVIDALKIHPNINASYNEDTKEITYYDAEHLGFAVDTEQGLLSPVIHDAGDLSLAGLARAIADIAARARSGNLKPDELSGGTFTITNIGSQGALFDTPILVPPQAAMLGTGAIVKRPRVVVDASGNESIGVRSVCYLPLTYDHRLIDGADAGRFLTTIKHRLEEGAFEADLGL
Type: biochemical

| Compound | IC50 [µM] |
| --- | --- |
| CC(C)(C)c1ccc(-c2ccc(C=C3SC(=S)N(Nc4ccccc4C(=O)O)C3=O)o2)cc1 (single isomer, unassigned) [Compound D2, 2-{5-[1-[5-(4-tert-butyl-phenyl)-furan-2-yl]-meth-(E)-ylidene]-4-oxo-2-thioxo-thiazolidin-3-ylamino}-benzoic acid] | < 10 |
| O=C(O)c1ccccc1NN1C(=O)/C(=C\c2ccc(-c3ccc(N4CCOCC4)cc3)o2)SC1=S (single isomer, unassigned) [Compound D6, 2-{5-[1-[5-(4-morpholin-4-yl-phenyl)-furan-2-yl]-meth-(E)-ylidene]-4-oxo-2-thioxo-thiazolidin-3-ylamino}-benzoic acid] | 11 to 40 |

Same assay, conditions: Table 1, Compounds A1 to A294; read-out: Dlat IC50 category

| Compound | IC50 [µM] |
| --- | --- |
| O=C(O)c1cccc(N2C(=O)C(=Cc3ccc(-c4cccc(C(F)(F)F)c4)o3)SC2=S)c1 [Compound A2] | < 10 |
| O=C(O)c1cccc(N2C(=O)C(=Cc3ccc(-c4ccc(Cc5ccccc5)cc4)o3)SC2=S)c1 [Compound A3] | < 10 |
| O=C(O)c1cccc(N2C(=O)C(=Cc3ccc(-c4cccc(Cl)c4)o3)SC2=S)c1 [Compound A4] | 11 to 40 |
| O=C(O)c1cccc(N2C(=O)C(=Cc3cccc(-c4ccccc4Cl)n3)SC2=S)c1 [Compound A5] | > 41 |
| NS(=O)(=O)c1ccc(N2C(=O)C(=Cc3ccc(-c4ccccc4Cl)o3)SC2=S)cc1 [Compound A6] | 11 to 40 |
| O=C(O)c1cccc(N2C(=O)C(=Cc3ccc(-c4ccc(Cl)c(Cl)c4)o3)SC2=S)c1 [Compound A7] | < 10 |
| O=C(O)c1ccc(N2C(=O)C(=Cc3ccc(-c4ccc(Cl)c(Cl)c4)o3)SC2=S)cc1 [Compound A8] | < 10 |
| NS(=O)(=O)c1ccc(N2C(=O)C(=Cc3ccc(-c4ccc(Cl)c(Cl)c4)o3)SC2=S)cc1 [Compound A9] | 11 to 40 |
| O=C(O)c1ccc(N2C(=O)C(=Cc3ccc(-c4cccc(C(F)(F)F)c4)o3)SC2=S)cc1 [Compound A10] | 11 to 40 |
| O=C(O)c1ccc(N2C(=O)C(=Cc3ccc(-c4ccc(Cc5ccccc5)cc4)o3)SC2=S)cc1 [Compound A11] | 11 to 40 |
| NS(=O)(=O)c1ccc(N2C(=O)C(=Cc3ccc(-c4ccc(Cc5ccccc5)cc4)o3)SC2=S)cc1 [Compound A12] | 11 to 40 |
| O=C(O)c1cccc(N2C(=O)C(=Cc3ccc(-c4ccc(Oc5ccccc5)cc4)o3)SC2=S)c1 [Compound A13] | < 10 |
| O=C(O)c1ccc(N2C(=O)C(=Cc3ccc(-c4ccc(Oc5ccccc5)cc4)o3)SC2=S)cc1 [Compound A14] | 11 to 40 |
| NS(=O)(=O)c1ccc(N2C(=O)C(=Cc3ccc(-c4ccc(Oc5ccccc5)cc4)o3)SC2=S)cc1 [Compound A15] | > 41 |
| O=C(O)c1ccc(N2C(=O)C(=Cc3ccc(-c4ccccc4Cl)o3)SC2=S)cc1 [Compound A16] | > 41 |
| NS(=O)(=O)c1ccc(N2C(=O)C(=Cc3ccc(-c4ccc(Cl)cc4)o3)SC2=S)cc1 [Compound A17] | 11 to 40 |
| NS(=O)(=O)c1ccc(N2C(=O)C(=Cc3ccc(-c4cccc(C(F)(F)F)c4)o3)SC2=S)cc1 [Compound A18] | 11 to 40 |
| NS(=O)(=O)c1ccc(N2C(=O)C(=Cc3ccc(-c4cccc(Cl)c4)o3)SC2=S)cc1 [Compound A19] | 11 to 40 |
| O=C(O)c1ccc(N2C(=O)C(=Cc3ccc(-c4ccc(Cl)cc4)o3)SC2=S)cc1 [Compound A20] | < 10 |
| O=C(O)c1cccc(N2C(=O)C(=Cc3ccc(-c4ccc(Cl)cc4)o3)SC2=S)c1 [Compound A21] | < 10 |
| O=C1C(=Cc2ccc(-c3ccccc3Cl)o2)SC(=S)N1c1ccc(O)cc1 [Compound A22] | < 10 |

| Compound | IC50 [µM] |
| --- | --- |
| O=C1C(=Cc2ccc(-c3cccc(C(F)(F)F)c3)o2)SC(=S)N1c1ccc(O)cc1 [Compound A23] | < 10 |
| O=C1C(=Cc2ccc(-c3ccc(Cl)cc3)o2)SC(=S)N1c1ccc(O)cc1 [Compound A24] | < 10 |
| NS(=O)(=O)c1cccc(N2C(=O)C(=Cc3ccc(-c4ccccc4Cl)o3)SC2=S)c1 [Compound A25] | 11 to 40 |
| NS(=O)(=O)c1cccc(N2C(=O)C(=Cc3ccc(-c4cccc(C(F)(F)F)c4)o3)SC2=S)c1 [Compound A26] | 11 to 40 |
| NS(=O)(=O)c1cccc(N2C(=O)C(=Cc3ccc(-c4ccc(Cl)cc4)o3)SC2=S)c1 [Compound A27] | < 10 |
| O=C(O)c1cccc(N2C(=O)C(=Cc3cc(-c4cccc(C(F)(F)F)c4)co3)SC2=S)c1 [Compound A28] | < 10 |
| O=C(O)c1ccc(N2C(=O)C(=Cc3cc(-c4cccc(C(F)(F)F)c4)co3)SC2=S)cc1 [Compound A29] | 11 to 40 |
| CC(=O)NS(=O)(=O)c1ccc(N2C(=O)C(=Cc3ccc(-c4ccc(Cl)c(Cl)c4)o3)SC2=S)cc1 [Compound A30] | < 10 |
| CC(=O)NS(=O)(=O)c1ccc(N2C(=O)C(=Cc3ccc(-c4cccc(C(F)(F)F)c4)o3)SC2=S)cc1 [Compound A31] | < 10 |
| O=C(O)c1cc(N2C(=O)C(=Cc3ccc(-c4cccc(C(F)(F)F)c4)o3)SC2=S)ccc1O [Compound A32] | < 10 |
| O=C(O)c1cc(N2C(=O)C(=Cc3ccc(-c4ccccc4Cl)o3)SC2=S)ccc1O [Compound A33] | < 10 |
| O=C(O)c1cc(N2C(=O)C(=Cc3ccc(-c4ccc(Cl)cc4)o3)SC2=S)ccc1O [Compound A34] | < 10 |
| O=C(O)c1cccc(N2C(=O)C(=Cc3ccc(-c4ccc(Cl)cc4Cl)o3)SC2=S)c1 [Compound A35] | 11 to 40 |
| O=C(O)c1cccc(N2C(=O)C(=Cc3ccc(-c4cc(Cl)ccc4Cl)o3)SC2=S)c1 [Compound A36] | < 10 |
| CC(=O)NS(=O)(=O)c1cccc(N2C(=O)C(=Cc3ccc(-c4ccccc4Cl)o3)SC2=S)c1 [Compound A37] | 11 to 40 |
| CC(=O)NS(=O)(=O)c1cccc(N2C(=O)C(=Cc3ccc(-c4cccc(C(F)(F)F)c4)o3)SC2=S)c1 [Compound A38] | < 10 |
| O=C(O)c1cccc(N2C(=O)C(=Cc3ccc(-c4c(Cl)cccc4Cl)o3)SC2=S)c1 [Compound A39] | 11 to 40 |
| O=C(O)c1cc(N2C(=O)C(=Cc3ccc(-c4ccc(Cl)cc4Cl)o3)SC2=S)ccc1O [Compound A40] | 11 to 40 |
| O=C(O)c1cc(N2C(=O)C(=Cc3ccc(-c4cc(Cl)ccc4Cl)o3)SC2=S)ccc1O [Compound A41] | 11 to 40 |
| O=C(O)c1cc(N2C(=O)C(=Cc3ccc(-c4c(Cl)cccc4Cl)o3)SC2=S)ccc1O [Compound A42] | 11 to 40 |
| O=C(O)c1cccc(N2C(=O)C(=Cc3ccc(-c4cc(C(F)(F)F)ccc4Cl)o3)SC2=S)c1 [Compound A44] | < 10 |

| Compound | IC50 [µM] |
| --- | --- |
| O=C(O)COc1ccc(N2C(=O)C(=Cc3ccc(-c4ccc(Cl)cc4)o3)SC2=S)cc1 [Compound A45] | 11 to 40 |
| CC(C)c1ccc(-c2ccc(C=C3SC(=S)N(c4cccc(C(=O)O)c4)C3=O)o2)cc1 [Compound A46] | < 10 |
| CC(C)c1ccc(-c2ccc(C=C3SC(=S)N(c4ccc(O)c(C(=O)O)c4)C3=O)o2)cc1 [Compound A47] | < 10 |
| O=C(O)c1cccc(N2C(=O)C(=Cc3ccc(-c4ccc(C(=O)c5ccccc5)cc4)o3)SC2=S)c1 [Compound A48] | < 10 |
| O=C1C(=Cc2ccc(-c3ccccc3Cl)o2)SC(=S)N1c1cccc(O)c1 [Compound A49] | 11 to 40 |
| O=C1C(=Cc2ccc(-c3cccc(C(F)(F)F)c3)o2)SC(=S)N1c1cccc(O)c1 [Compound A50] | 11 to 40 |
| O=C1C(=Cc2ccc(-c3ccc(Cl)cc3)o2)SC(=S)N1c1cccc(O)c1 [Compound A51] | 11 to 40 |
| CC(C)c1ccc(-c2ccc(C=C3SC(=S)N(c4cccc(O)c4)C3=O)o2)cc1 [Compound A52] | 11 to 40 |
| O=C(O)c1cccc(N2C(=O)C(=Cc3ccc(-c4ccc(CSc5ccccc5)cc4)o3)SC2=S)c1 [Compound A53] | 11 to 40 |
| CC(C)c1cccc(-c2ccc(C=C3SC(=S)N(c4cccc(C(=O)O)c4)C3=O)o2)c1 [Compound A54] | < 10 |
| CC(C)c1cccc(-c2ccc(C=C3SC(=S)N(c4cccc(O)c4)C3=O)o2)c1 [Compound A55] | 11 to 40 |
| O=C(O)c1cccc(N2C(=O)C(=Cc3ccc(-c4ccc(C5CCCCC5)cc4)o3)SC2=S)c1 [Compound A56] | < 10 |
| O=C(O)c1cc(N2C(=O)C(=Cc3ccc(-c4ccc(C5CCCCC5)cc4)o3)SC2=S)ccc1O [Compound A57] | < 10 |
| CC(C)(C)c1ccc(-c2ccc(C=C3SC(=S)N(c4cccc(C(=O)O)c4)C3=O)o2)cc1 [Compound A58] | < 10 |
| CC(C)(C)c1ccc(-c2ccc(C=C3SC(=S)N(c4ccc(O)c(C(=O)O)c4)C3=O)o2)cc1 [Compound A59] | < 10 |
| O=C(O)COc1cccc(N2C(=O)C(=Cc3ccc(-c4ccc(Cl)cc4)o3)SC2=S)c1 [Compound A60] | 11 to 40 |
| CC(C)c1cccc(-c2ccc(C=C3SC(=S)N(c4ccc(O)c(C(=O)O)c4)C3=O)o2)c1 [Compound A61] | < 10 |
| O=C(O)c1cc(N2C(=O)C(=Cc3ccc(-c4ccc(CSc5ccccc5)cc4)o3)SC2=S)ccc1O [Compound A62] | 11 to 40 |
| CC(C)c1cccc(-c2ccc(C=C3SC(=S)N(c4cccc(OCC(=O)O)c4)C3=O)o2)c1 [Compound A63] | < 10 |
| CC(C)Cc1ccc(-c2ccc(C=C3SC(=S)N(c4cccc(C(=O)O)c4)C3=O)o2)cc1 [Compound A64] | < 10 |

Same assay, conditions: read-out: Dlat IC50 category

| Compound | IC50 [µM] |
| --- | --- |
| 2-{5-[2-(2-Chloro-benzyloxy)-benzylidene]-4-oxo-2-thioxo-thiazolidin-3-ylamino}-benzoic acid [Compound D32] | < 10 |
